Among the data in the supplement of paper PMC6045584 are surviving fraction values, retold here.

± gives the standard deviation of the averaged measurements.

Compound in one assay: COc1ccc(C2=N[C@@H](c3ccc(Cl)cc3)[C@@H](c3ccc(Cl)cc3)N2C(=O)N2CCNC(=O)C2)c(OC(C)C)c1 [NUTLIN3]
Nature of the assay: surviving fraction relative to DMSO-only wells; higher = less growth inhibition. The note with it: exposure time: 5 days. In outline:
(§1)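 Continuous five-day exposure to inhibitors at 0.5, 1, 5, 10, 50, 100, 500 and 1000 nM started 24 hours after log-phase tumour cell lines were seeded at 250–500 cells per well in 384-well plates. Luminescence was read after 10 minutes at room temperature. Viability is given as surviving fraction, meaning CellTiter-Glo luminescence normalised to the median of DMSO-only wells.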

Compound in the next assay: CN1CC[C@H](c2c(O)cc(O)c3c(=O)cc(-c4ccccc4Cl)oc23)[C@H](O)C1 [FLAVOPIRIDOL]
Described as above. The note with it: exposure time: 5 days. The procedure, abridged: as §1

Regarding HSSYII SYNOVIAL, the surviving fraction is 0.951 ± 0.02 with NUTLIN3 (0.5 nM); 0.904 ± 0.051 in the assay with NUTLIN3 (1 nM); 0.976 ± 0.041 with NUTLIN3 (5 nM); 0.9313 ± 0.0089 in the assay with NUTLIN3 (10 nM); 0.942 ± 0.053 with NUTLIN3 (50 nM); 0.91 ± 0.035 with NUTLIN3 (100 nM). For the same test system, the surviving fraction stood at 0.676 ± 0.058 with NUTLIN3 (500 nM); 0.43 ± 0.04 in the assay with NUTLIN3 (1000 nM); 0.999 ± 0.021 with FLAVOPIRIDOL (0.5 nM); 0.993 ± 0.025 with FLAVOPIRIDOL (1 nM); 1.01 ± 0.083 with FLAVOPIRIDOL (5 nM); 0.907 ± 0.037 with FLAVOPIRIDOL (10 nM). Also, the surviving fraction with FLAVOPIRIDOL (50 nM) stood at 0.564 ± 0.034; in the assay with FLAVOPIRIDOL (100 nM), 0.145 ± 0.017; with FLAVOPIRIDOL (500 nM), 0.0215 ± 0.0005; in the assay with FLAVOPIRIDOL (1000 nM), 0.0212 ± 0.00058.
Consider HT1080 SOFT TISSUE, for which the surviving fraction was determined as 1.02 ± 0.019 with NUTLIN3 (0.5 nM); 0.978 ± 0.031 with NUTLIN3 (1 nM); 0.998 ± 0.012 in the assay with NUTLIN3 (5 nM); 1.02 ± 0.018 with NUTLIN3 (10 nM); 0.9757 ± 0.0085 with NUTLIN3 (50 nM); 0.929 ± 0.01 with NUTLIN3 (100 nM). Also, the surviving fraction in the assay with NUTLIN3 (500 nM) came out at 0.797 ± 0.024; with NUTLIN3 (1000 nM), 0.58 ± 0.046; with FLAVOPIRIDOL (0.5 nM) it was 1.05 ± 0.027; with FLAVOPIRIDOL (1 nM), 1.05 ± 0.02; in the assay with FLAVOPIRIDOL (5 nM), 1.03 ± 0.029; in the assay with FLAVOPIRIDOL (10 nM) it was 1.016 ± 0.0044. Moreover, the surviving fraction with FLAVOPIRIDOL (50 nM) was found to be 0.4973 ± 0.0011; with FLAVOPIRIDOL (100 nM), 0.193 ± 0.024; with FLAVOPIRIDOL (500 nM), 0.061 ± 0.003; with FLAVOPIRIDOL (1000 nM) it was 0.0633 ± 0.0021.
Regarding HU09 BONE, the surviving fraction with NUTLIN3 (0.5 nM) is 1.03 ± 0.17; with NUTLIN3 (1 nM), 0.933 ± 0.1; with NUTLIN3 (5 nM), 1.02 ± 0.14; with NUTLIN3 (10 nM), 1.03 ± 0.059; with NUTLIN3 (50 nM) it was 1.04 ± 0.069; with NUTLIN3 (100 nM), 1.08 ± 0.11. Besides, the surviving fraction was determined as 1.04 ± 0.14 with NUTLIN3 (500 nM); 1.03 ± 0.085 in the assay with NUTLIN3 (1000 nM); 1.06 ± 0.12 with FLAVOPIRIDOL (0.5 nM); 1.08 ± 0.037 with FLAVOPIRIDOL (1 nM); 1.22 ± 0.14 with FLAVOPIRIDOL (5 nM); 1.08 ± 0.082 with FLAVOPIRIDOL (10 nM). The surviving fraction with FLAVOPIRIDOL (50 nM) came to 0.638 ± 0.051; in the assay with FLAVOPIRIDOL (100 nM), 0.0337 ± 0.0032; with FLAVOPIRIDOL (500 nM), 0.024; with FLAVOPIRIDOL (1000 nM), 0.025 ± 0.0017.
As for HUO3N1 BONE, the surviving fraction with NUTLIN3 (0.5 nM) was 1.07 ± 0.046; with NUTLIN3 (1 nM), 0.988 ± 0.032; in the assay with NUTLIN3 (5 nM), 1.039 ± 0.0087; with NUTLIN3 (10 nM) it was 1 ± 0.034; in the assay with NUTLIN3 (50 nM), 1.09 ± 0.032; in the assay with NUTLIN3 (100 nM), 1.03 ± 0.032. Moreover, the surviving fraction with NUTLIN3 (500 nM) stood at 1.01 ± 0.068; with NUTLIN3 (1000 nM) it was 1.04 ± 0.033; in the assay with FLAVOPIRIDOL (0.5 nM) it was 1.07 ± 0.016; in the assay with FLAVOPIRIDOL (1 nM) it was 1 ± 0.022; in the assay with FLAVOPIRIDOL (5 nM), 1.14 ± 0.033; with FLAVOPIRIDOL (10 nM), 1.12 ± 0.03. Also, the surviving fraction in the assay with FLAVOPIRIDOL (50 nM) is 1.26 ± 0.052; in the assay with FLAVOPIRIDOL (100 nM), 0.929 ± 0.077; in the assay with FLAVOPIRIDOL (500 nM), 0.0483 ± 0.0011; with FLAVOPIRIDOL (1000 nM), 0.039 ± 0.0061.
Consider JIMT1 BREAST, for which the surviving fraction with NUTLIN3 (0.5 nM) turned out to be 0.985 ± 0.011; with NUTLIN3 (1 nM), 0.976 ± 0.018; in the assay with NUTLIN3 (5 nM), 1.01 ± 0.037; with NUTLIN3 (10 nM), 0.9965 ± 0.0076; in the assay with NUTLIN3 (50 nM) it was 1.08 ± 0.037; with NUTLIN3 (100 nM) it was 1.06 ± 0.016. Also, the surviving fraction was 1.06 ± 0.043 in the assay with NUTLIN3 (500 nM); 1.04 ± 0.018 with NUTLIN3 (1000 nM); 1 ± 0.012 with FLAVOPIRIDOL (0.5 nM); 1.01 ± 0.033 with FLAVOPIRIDOL (1 nM); 1.05 ± 0.047 with FLAVOPIRIDOL (5 nM); 1.02 ± 0.035 with FLAVOPIRIDOL (10 nM). Moreover, the surviving fraction with FLAVOPIRIDOL (50 nM) came out at 0.809 ± 0.019; with FLAVOPIRIDOL (100 nM), 0.2 ± 0.029; with FLAVOPIRIDOL (500 nM), 0.0467 ± 0.0053; with FLAVOPIRIDOL (1000 nM), 0.0375 ± 0.0027.
